Measured values published in patent US12162863B2, “Modulators of stimulator of interferon genes (STING)” (RYVU THERAPEUTICS S.A., priority 2018, dated 2024).

Experiments:
human STING = human STING (Homo sapiens, UniProt Q86WV6); assay: Fluorescence Thermal Shift assay; assay type: binding; conditions: 50 μM compound; STING 0.1 mg/ml; 20 minutes preincubation; read-out: [hSTING] FTS, ΔTm [° C.] for 50 μM
How it was run: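 Human STING at a final 0.1 mg/ml was preincubated with compound for 20 min in 50 mM Hepes, 150 mM NaCl, pH 7.5, then SyproOrange dye was added. Thermal unfolding ran from 25 to 99° C at 0.033° C/s, continuous ramp. Values are reported as ΔTm (° C).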

[1] = test system: NF-κB pathway in THP-1 dual cells; assay: THP-1 Dual Reporter Assay, NF-κB pathway (SEAP reporter); assay type: cell-based; conditions: Homo sapiens, THP1-Dual, 18 h of stimulation, absorbance at 630 nm, read-out: THP1 Dual EC50 (μM) NFkB
How it was run: (§1)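 THP-1 dual cells stimulated 18 h with STING agonist; medium then sampled. IRF pathway: luciferase (ISG54 promoter/ISRE) read as luminescence immediately after reagent addition. NF-κB pathway: SEAP (IFN-β minimal promoter/NF-κB elements) developed 2 h at 37 °C, absorbance at 630 nm.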

[2] = test system: interferon regulatory factor (IRF) pathway in THP-1 dual cells; assay: THP-1 Dual Reporter Assay, IRF pathway (luciferase reporter); assay type: cell-based; conditions: Homo sapiens, THP1-Dual, 18 h of stimulation, luminescence
How it was run: as §1

Chain of human STING (Q86WV6 whole entry H232R): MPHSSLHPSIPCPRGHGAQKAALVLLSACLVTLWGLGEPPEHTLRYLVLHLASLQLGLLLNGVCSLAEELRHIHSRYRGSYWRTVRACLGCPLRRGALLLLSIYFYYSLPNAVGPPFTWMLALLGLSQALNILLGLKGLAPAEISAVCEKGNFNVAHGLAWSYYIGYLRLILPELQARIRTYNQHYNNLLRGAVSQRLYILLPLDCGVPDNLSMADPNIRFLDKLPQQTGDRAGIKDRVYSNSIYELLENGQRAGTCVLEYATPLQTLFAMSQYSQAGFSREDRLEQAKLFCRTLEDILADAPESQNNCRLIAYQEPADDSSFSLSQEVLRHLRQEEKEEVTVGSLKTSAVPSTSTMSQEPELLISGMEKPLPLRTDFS

SMILES	ΔTm at 50 µM (human STING) [°C]	EC50 [1] [µM]	EC50 [2] [µM]
Cc1oc2cc(F)c(F)cc2c(=O)c1CN(CCCn1cnc2ccccc21)Cc1ccncc1 [Example 99, 3-({[3-(1H-1,3-benzodiazol-1-yl)propyl][(pyridin-4-yl)methyl]amino}methyl)-6,7-difluoro-2-methyl-4H-chromen-4-one]	> 2.5	≤ 10	≤ 10
Cc1cc(CN(CCCn2cnc3ccccc32)Cc2cn(C)c3ccccc3c2=O)ccn1 [Example 100, 3-({[3-(1H-1,3-benzodiazol-1-yl)propyl][(2-methylpyridin-4-yl)methyl]amino}methyl)-1-methyl-1,4-dihydroquinolin-4-one]	> 2.5	≤ 10	≤ 10
Cc1cc(CN(CCCc2cccnc2)Cc2cn(C)c3ccccc3c2=O)ccn1 [Example 101, 1-methyl-3-({[(2-methylpyridin-4-yl)methyl][3-(pyridin-3-yl)propyl]amino}methyl)-1,4-dihydroquinolin-4-one]	> 2.5	10 to 20	≤ 10
COc1cc(CN(CCCc2ccnnc2)Cc2cn(C)c3ccccc3c2=O)ccn1 [Example 102, 3-({[(2-methoxypyridin-4-yl)methyl][3-(pyridazin-4-yl)propyl]amino}methyl)-1-methyl-1,4-dihydroquinolin-4-one]	< 2.5	≥ 20	≥ 20
COc1cc(CN(CCCn2cc(C(N)=O)nn2)Cc2cn(C)c3ccccc3c2=O)ccn1 [Example 103, 1-(3-{[(2-methoxypyridin-4-yl)methyl][(1-methyl-4-oxo-1,4-dihydroquinolin-3-yl)methyl]amino}propyl)-1H-1,2,3-triazole-4-carboxamide]	< 2.5	≥ 20	≥ 20
